According to patent publication EP4806435A1, “DIHYDROCHROMENE-DERIVATIVE-CONTAINING THERAPEUTIC AGENT FOR CANCER” (Sumitomo Pharma Co., Ltd., priority 2023, dated 2025):
Where two headings read alike, the source gives them in different places.

Assay: Phase 1 clinical trial: plasma pharmacokinetics
Format: in vivo, human
Conditions: human, plasma, oral; for half-life: read-out: Effective T1/2 (converted); for AUC: tau = 24 hours
Method: Summary statistics based on preliminary data were obtained for the pharmacokinetics of Compound 1 in patients receiving once-daily doses ranging from 20 mg to 240 mg (Table 5). The mean plasma concentration-time curves of Compound 1 in the once-daily dose groups ranging from 20 mg to 240 mg are shown in Figure 11. In this study, one cycle consists of 28 days, and Cycle 1 Day 1 refers to Day 1 of the first cycle. […] Accumulation was observed after repeated administration. […] Based on these accumulation ratios, the half-life of Compound 1 was estimated to be approximately 4 days. Based on the currently available data, plasma concentrations are considered to have reached steady state by Day 15.
Summary statistics based on preliminary data were obtained for the pharmacokinetics of Compound 1 in patients in the 20 mg QD, 40 mg QD, 80 mg QD, 120 mg QD, 180 mg QD, 240 mg QD, 360 mg QD, and 480 mg daily (240 mg BID) dose groups (Table 6). The mean plasma concentration-time curves of Compound 1 in the 20 mg QD to 480 mg daily (240 mg BID) dose groups are shown in Figure 12 (in Figure 12, Compound 1 is denoted as "DSP-0390"). In this study, one cycle consists of 28 days, and Cycle 1 Day 1 refers to Day 1 of the first cycle. […] The median Tmax ranged from 2 to 8 hours. Accumulation was observed after repeated administration, and assuming linearity based on the observed accumulation ratios, the estimated elimination half-life was considered to be on the order of several days (approximately 1 to 6 days) (data cut-off: March 2024).

CC1(C)Oc2cc(Cl)ccc2[C@@H]2OCC3(CCN(CCn4ccnc4)CC3)C[C@H]21 [Compound 1, (4'aR,10'bR)-8'-chloro-1-[2-(1H-imidazol-1-yl)ethyl]-5',5'-dimethyl-4'a,10'b-dihydro-2'H,4'H,5'H-spiro[piperidine-4,3'-pyrano[3,2-c][1]benzopyran] diphosphate]
Cmax (80 mg, Cycle 2 Day 1, 80 mg, QD, cut-off April 2023, read-out: Cmax (median)): 61 ng/mL
Tmax (80 mg, Cycle 2 Day 1, 80 mg, QD, cut-off April 2023, read-out: Tmax (mean)): 8 h
Tmax (80 mg, Cycle 2 Day 1, 80 mg, QD, cut-off April 2023, read-out: Tmax (median)): 8 h
half-life (120 mg, 120 mg QD, cut-off March 2024): 67.2 h
Cmax (120 mg, Cycle 1, Day 1, 120 mg QD, cut-off March 2024, read-out: Cmax): 44.2 ng/mL
Tmax (120 mg, Cycle 1, Day 1, 120 mg QD, cut-off March 2024, read-out: Tmax [a] median value): 4 h
AUC (120 mg, Cycle 1, Day 1, 120 mg QD, cut-off March 2024, read-out: AUCtau [b]): 577 ng·h/mL
AUC(0-t) (120 mg, Cycle 1 Day 1, 120 mg, QD, cut-off April 2023, read-out: AUC0-24 (geometric mean)): 544 ng·h/mL
AUC(0-t) (120 mg, Cycle 1 Day 1, 120 mg, QD, cut-off April 2023, read-out: AUC0-24 (mean)): 583 ng·h/mL
AUC(0-t) (120 mg, Cycle 1 Day 1, 120 mg, QD, cut-off April 2023, read-out: AUC0-24 (median)): 605 ng·h/mL
Cmax (120 mg, Cycle 1 Day 1, 120 mg, QD, cut-off April 2023, read-out: Cmax (geometric mean)): 40 ng/mL
Cmax (120 mg, Cycle 1 Day 1, 120 mg, QD, cut-off April 2023, read-out: Cmax (mean)): 44 ng/mL
Cmax (120 mg, Cycle 1 Day 1, 120 mg, QD, cut-off April 2023, read-out: Cmax (median)): 45 ng/mL
Tmax (120 mg, Cycle 1 Day 1, 120 mg, QD, cut-off April 2023, read-out: Tmax (mean)): 4 h
Tmax (120 mg, Cycle 1 Day 1, 120 mg, QD, cut-off April 2023, read-out: Tmax (median)): 4 h
Cmax (120 mg, Cycle 2, Day 1, 120 mg QD, cut-off March 2024, read-out: Cmax,ss): 156 ng/mL
Tmax (120 mg, Cycle 2, Day 1, 120 mg QD, cut-off March 2024, read-out: Tmax,ss [a] median value): 5 h
AUC (120 mg, Cycle 2, Day 1, 120 mg QD, cut-off March 2024, read-out: AUCtau,ss [b]): 2610 ng·h/mL
AUC(0-t) (120 mg, Cycle 2 Day 1, 120 mg, QD, cut-off April 2023, read-out: AUC0-24 (geometric mean)): 2420 ng·h/mL
AUC(0-t) (120 mg, Cycle 2 Day 1, 120 mg, QD, cut-off April 2023, read-out: AUC0-24 (mean)): 2630 ng·h/mL
AUC(0-t) (120 mg, Cycle 2 Day 1, 120 mg, QD, cut-off April 2023, read-out: AUC0-24 (median)): 2330 ng·h/mL
Cmax (120 mg, Cycle 2 Day 1, 120 mg, QD, cut-off April 2023, read-out: Cmax (geometric mean)): 140 ng/mL
Cmax (120 mg, Cycle 2 Day 1, 120 mg, QD, cut-off April 2023, read-out: Cmax (mean)): 156 ng/mL
Cmax (120 mg, Cycle 2 Day 1, 120 mg, QD, cut-off April 2023, read-out: Cmax (median)): 138 ng/mL
Tmax (120 mg, Cycle 2 Day 1, 120 mg, QD, cut-off April 2023, read-out: Tmax (mean)): 6 h
Tmax (120 mg, Cycle 2 Day 1, 120 mg, QD, cut-off April 2023, read-out: Tmax (median)): 5 h
half-life (180 mg, 180 mg QD, cut-off March 2024): 50.4 h
Cmax (180 mg, Cycle 1, Day 1, 180 mg QD, cut-off March 2024, read-out: Cmax): 114 ng/mL
Tmax (180 mg, Cycle 1, Day 1, 180 mg QD, cut-off March 2024, read-out: Tmax [a] median value): 6 h
AUC (180 mg, Cycle 1, Day 1, 180 mg QD, cut-off March 2024, read-out: AUCtau [b]): 1370 ng·h/mL
AUC(0-t) (180 mg, Cycle 1 Day 1, 180 mg, QD, cut-off April 2023, read-out: AUC0-24 (geometric mean)): 1060 ng·h/mL
AUC(0-t) (180 mg, Cycle 1 Day 1, 180 mg, QD, cut-off April 2023, read-out: AUC0-24 (mean)): 1420 ng·h/mL
AUC(0-t) (180 mg, Cycle 1 Day 1, 180 mg, QD, cut-off April 2023, read-out: AUC0-24 (median)): 1840 ng·h/mL
Cmax (180 mg, Cycle 1 Day 1, 180 mg, QD, cut-off April 2023, read-out: Cmax (geometric mean)): 73 ng/mL
Cmax (180 mg, Cycle 1 Day 1, 180 mg, QD, cut-off April 2023, read-out: Cmax (mean)): 101 ng/mL
Cmax (180 mg, Cycle 1 Day 1, 180 mg, QD, cut-off April 2023, read-out: Cmax (median)): 140 ng/mL
Tmax (180 mg, Cycle 1 Day 1, 180 mg, QD, cut-off April 2023, read-out: Tmax (mean)): 11 h
Tmax (180 mg, Cycle 1 Day 1, 180 mg, QD, cut-off April 2023, read-out: Tmax (median)): 6 h
Cmax (180 mg, Cycle 2, Day 1, 180 mg QD, cut-off March 2024, read-out: Cmax,ss): 215 ng/mL
Tmax (180 mg, Cycle 2, Day 1, 180 mg QD, cut-off March 2024, read-out: Tmax,ss [a] median value): 6 h
AUC (180 mg, Cycle 2, Day 1, 180 mg QD, n=3, cut-off March 2024, read-out: AUCtau,ss [b]): 4860 ng·h/mL
AUC(0-t) (180 mg, Cycle 2 Day 1, 180 mg, QD, N=1, cut-off April 2023, read-out: AUC0-24 (geometric mean)): 7260 ng·h/mL
AUC(0-t) (180 mg, Cycle 2 Day 1, 180 mg, QD, N=1, cut-off April 2023, read-out: AUC0-24 (mean)): 7260 ng·h/mL
AUC(0-t) (180 mg, Cycle 2 Day 1, 180 mg, QD, N=1, cut-off April 2023, read-out: AUC0-24 (median)): 7260 ng·h/mL
Cmax (180 mg, Cycle 2 Day 1, 180 mg, QD, cut-off April 2023, read-out: Cmax (geometric mean)): 281 ng/mL
Cmax (180 mg, Cycle 2 Day 1, 180 mg, QD, cut-off April 2023, read-out: Cmax (mean)): 287 ng/mL
Cmax (180 mg, Cycle 2 Day 1, 180 mg, QD, cut-off April 2023, read-out: Cmax (median)): 287 ng/mL
Tmax (180 mg, Cycle 2 Day 1, 180 mg, QD, cut-off April 2023, read-out: Tmax (mean)): 7 h
